The values that follow come from patent US6552062B1, “Indazole derivatives with 5-HT2 receptor activity” (Vernalis Research Limited, priority 1998, dated 2003).

Where a name gives a salt, the structure may show the parent alone.

One data set has as its target T1, human 5-HT2B receptors (Homo sapiens, UniProt P41595).
T1 construct: expressed in transfected cells; host or cells: CHO cell line
As to the kind of experiment: Binding to 5-HT2B receptor, [3H]-5-HT radioligand, Method (b). Conditions: human 5-HT2B receptors in a CHO cell line, read-out: Method (b) Ki (2B). On the procedure: (§1) The binding of compounds of formula I to serotonin receptors was determined in vitro by standard methods. The preparations were investigated in accordance with the assays given hereinafter.
Method (b): For the binding to the 5-HT2B receptor the 5-HT2B receptors were radiolabeled with [^3H]-5-HT. The affinity of the compounds for human 5-HT2B receptors in a CHO cell line was determined according to the procedure of K. Schmuck, C. Ullmer, P. Engels and H. Lubbert, FEBS Lett., 1994, 342, 85-90.

Data set [1] has as its target T2, human 5-HT2C (Homo sapiens, UniProt P28335).
T2 sequence (P28335 33-458): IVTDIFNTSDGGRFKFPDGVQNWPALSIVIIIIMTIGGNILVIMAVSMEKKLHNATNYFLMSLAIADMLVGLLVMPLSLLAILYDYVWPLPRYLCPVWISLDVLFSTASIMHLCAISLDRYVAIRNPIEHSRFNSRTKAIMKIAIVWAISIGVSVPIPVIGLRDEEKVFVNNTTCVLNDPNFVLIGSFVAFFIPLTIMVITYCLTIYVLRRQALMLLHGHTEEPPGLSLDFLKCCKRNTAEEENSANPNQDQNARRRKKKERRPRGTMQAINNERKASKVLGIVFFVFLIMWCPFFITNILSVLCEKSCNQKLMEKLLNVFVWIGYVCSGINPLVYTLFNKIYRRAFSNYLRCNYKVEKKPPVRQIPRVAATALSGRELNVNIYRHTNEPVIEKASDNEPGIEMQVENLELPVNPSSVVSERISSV
Nature of the data set: Functional activity, FLIPR calcium assay, CHO cells expressing human 5-HT2C. Conditions: for EC50: CHO cells, FLIPR, Fluo-3-AM, read-out: h5-HT2C EC50; for Emax: CHO, maximum fluorescent signal relative to 10 μM 5-HT (defined as 100%), read-out: h5-HT2C Relative Efficacy (%). The data set is classed as cell-based. Also on record: expressed in transfected cells; host or cells: CHO cells. The protocol: (§2) The functional activity of compounds of formula (I) was assayed using a Fluorimetric Imaging Plate reader (FLIPR). CHO cells expressing the human 5-HT2C or human 5-HT2A receptors were counted and plated into standard 96 well microtitre plates on the day before testing to give a confluent monolayer. The cells were then dye loaded with the calcium sensitive dye, Fluo-3-AM. Unincorporated dye was removed using an automated cell washer to leave a total volume of 100 μL/well of assay buffer (Hanks balanced salt solution containing 20 mM Hepes and 2.5 mM probenecid). The drug (dissolved in 50 μL of the assay buffer) was added at a rate of 70 μL/sec to each well of the FLIPR 96 well plate during fluorescence measurements. The measurements were taken at 1 sec intervals and the maximum fluorescent signal was measured (approx 10-15 secs after drug addition) and compared with the response produced by 10 μM 5-HT (defined as 100%) to which it was expressed as a percentage response (relative efficacy). Dose response curves were constructed using Graphpad Prism (Graph Software Inc.).

The target of data set [2] is T2, human 5-HT2C. Nature of the data set: Binding to 5-HT2C receptor, [3H]-5-HT radioligand, Method (a). Also on record: expressed in transfected cells; host or cells: CHO cell line. Conditions: 5-HT2C receptors in a CHO cell line, read-out: Method (a) Ki (2C). The protocol:
as §1
Method (a): For the binding to the 5-HT2C receptor the 5-HT2C receptors were radiolabeled with [^3H]-5-HT. The affinity of the compounds for 5-HT2C receptors in a CHO cell line was determined according to the procedure of D. Hoyer, G. Engel and H. O. Kalkman, European J Pharmacol., 1985, 118, 13-23.

Another data set addresses T3, human 5-HT2A receptors (Homo sapiens, UniProt P28223).
T3 construct: expressed in transfected cells; host or cells: CHO cells
As to the kind of experiment: Functional activity, FLIPR calcium assay, CHO cells expressing human 5-HT2A. The data set is classed as cell-based. The note with it: for EC50: CHO cells, FLIPR, Fluo-3-AM, read-out: h5-HT2A EC50; for h5-HT2A Relative Efficacy (%): maximum fluorescent signal relative to 10 μM 5-HT (defined as 100%). On the procedure:
as §2

T3 sequence (P28223 whole entry): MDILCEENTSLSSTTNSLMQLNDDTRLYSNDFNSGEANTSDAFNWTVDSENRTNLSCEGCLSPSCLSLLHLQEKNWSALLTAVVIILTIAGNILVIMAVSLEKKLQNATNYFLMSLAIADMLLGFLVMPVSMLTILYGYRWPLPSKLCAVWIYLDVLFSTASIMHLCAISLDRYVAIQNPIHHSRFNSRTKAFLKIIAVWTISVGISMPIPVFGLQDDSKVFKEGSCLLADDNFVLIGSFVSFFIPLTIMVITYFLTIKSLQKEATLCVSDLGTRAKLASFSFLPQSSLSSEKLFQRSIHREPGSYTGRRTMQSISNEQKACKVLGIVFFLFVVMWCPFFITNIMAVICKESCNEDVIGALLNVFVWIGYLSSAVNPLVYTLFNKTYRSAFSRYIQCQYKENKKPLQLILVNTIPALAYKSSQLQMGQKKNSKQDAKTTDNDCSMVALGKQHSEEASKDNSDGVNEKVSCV
T1 sequence (P41595 whole entry): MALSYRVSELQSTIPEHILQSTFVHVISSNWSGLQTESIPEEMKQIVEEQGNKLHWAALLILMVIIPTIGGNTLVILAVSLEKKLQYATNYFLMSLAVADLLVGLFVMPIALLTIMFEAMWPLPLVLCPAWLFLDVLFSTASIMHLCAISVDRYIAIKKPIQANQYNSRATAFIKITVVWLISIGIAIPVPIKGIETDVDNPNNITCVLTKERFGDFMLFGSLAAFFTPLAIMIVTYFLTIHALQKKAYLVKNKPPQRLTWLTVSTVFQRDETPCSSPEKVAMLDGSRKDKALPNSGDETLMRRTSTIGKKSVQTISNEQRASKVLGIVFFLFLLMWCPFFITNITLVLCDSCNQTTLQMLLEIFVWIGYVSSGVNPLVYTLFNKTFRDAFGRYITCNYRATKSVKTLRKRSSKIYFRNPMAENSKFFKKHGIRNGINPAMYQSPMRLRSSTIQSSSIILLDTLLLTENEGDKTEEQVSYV

Take `COc1ccc2c(C)nn(C[C@H](C)N)c2c1` (as salt: fumarate) [Example 2, (S)-1-(6-Methoxy-3-methylindazol-1-yl)-2-propylamine Fumarate]: the melting point – broadly, the temperature, or range, at which the solid turns liquid – lay within 180 to 181 °C.

In turn, `Cc1nn(C[C@H](C)N)c2cc(F)c(F)cc12` (as salt: fumarate) [Example 3, (S)-1-(5,6-Difluoro-3-methylindazol-1-yl)-2-propylamine Fumarate] yielded a melting point of 160 to 161 °C.

`Cc1nn(C[C@H](C)N)c2cc(Cl)c(F)cc12` (as salt: fumarate) [Example 4, (S)-1-(6-Chloro-5-fluoro-3-methylindazol-1-yl)-2-propylamine Fumarate] showed a melting point of 158 to 159 °C.

The compound `CCc1nn(C[C@H](C)N)c2cc(F)ccc12` (as salt: fumarate) [Example 6, (S)-1-(3-Ethyl-6-fluoroindazol-1-yl)-2-propylamine Fumarate] gave a melting point of 143 to 145 °C.

`CCc1nn(C[C@H](C)N)c2cc(Br)ccc12` (as salt: fumarate) [Example 7, (S)-1-(6-Bromo-3-ethylindazol-1-yl)-2-propylamine Fumarate] came in with a melting point of 148 to 150 °C.

For the compound `CCc1nn(C[C@H](C)N)c2cc(SC)ccc12` (as salt: fumarate) [Example 8, (S)-1-(3-Ethyl-6-methylthioindazol-1-yl)-2-propylamine Fumarate], the melting point is 147 to 149 °C.

For the compound `Cc1nn(CC(C)N)c2ccccc12` (racemic) [Example 1, (RS)-1-(3-Methylindazol-1-yl)-2-propylamine Fumarate], the Ki (in general, a measure of affinity in units of concentration, obtained from inhibition or displacement) on human 5-HT2B receptors amounted to 241 nM. At human 5-HT2C [1], the 50% effective concentration (EC50) – broadly, the midpoint of the concentration-response curve – was found to be 960 nM and the Emax is 55%. Further, the Ki at human 5-HT2C [2] stood at 431 nM.

As for `COc1ccc2c(C)nn(C[C@H](C)N)c2c1` [Example 2, (S)-1-(6-Methoxy-3-methylindazol-1-yl)-2-propylamine Fumarate], the Ki at human 5-HT2B receptors was determined as 135 nM. Also, at human 5-HT2A receptors, the EC50 is 108 nM and the “h5-HT2A Relative Efficacy (%)” value came out at 59%. On human 5-HT2C [1], the EC50 is 44 nM and the Emax was found to be 74%. Also, on human 5-HT2C [2], the Ki turned out to be 210 nM.

Regarding `Cc1nn(C[C@H](C)N)c2cc(F)c(F)cc12` [Example 3, (S)-1-(5,6-Difluoro-3-methylindazol-1-yl)-2-propylamine Fumarate], on human 5-HT2B receptors, the Ki was determined as 63 nM. Further, on human 5-HT2A receptors, the EC50 stood at 152 nM and the “h5-HT2A Relative Efficacy (%)” value is 50%. Moreover, on human 5-HT2C [1], the EC50 was found to be 84 nM and the Emax worked out at 67%. The Ki at human 5-HT2C [2] is 140 nM.

Regarding `Cc1nn(C[C@H](C)N)c2cc(Cl)c(F)cc12` [Example 4, (S)-1-(6-Chloro-5-fluoro-3-methylindazol-1-yl)-2-propylamine Fumarate], the Ki amounted to 26 nM at human 5-HT2B receptors and 75 nM on human 5-HT2C [2]. In addition, the concentration giving a half-maximal response (EC50) on human 5-HT2A receptors turned out to be 137 nM; at human 5-HT2C [1], 48 nM. Moreover, the “h5-HT2A Relative Efficacy (%)” value on human 5-HT2A receptors was 65%. In addition, on human 5-HT2C [1], the Emax was 76%.

For `CCc1nn(C[C@H](C)N)c2cc(C(F)(F)F)ccc12` [Example 5, (S)-1-(3-Ethyl-6-trifluoromethylindazol-1-yl)-2-propylamine Fumarate], at human 5-HT2C [1], the EC50 is 877 nM and the Emax turned out to be 73%.

Regarding `CCc1nn(C[C@H](C)N)c2cc(F)ccc12` [Example 6, (S)-1-(3-Ethyl-6-fluoroindazol-1-yl)-2-propylamine Fumarate], at human 5-HT2A receptors, the EC50 was determined as 288 nM and the “h5-HT2A Relative Efficacy (%)” value is 32%. For the same compound, at human 5-HT2C [1], the EC50 stood at 52 nM and the Emax is 47%.

Regarding `CCc1nn(C[C@H](C)N)c2cc(Br)ccc12` [Example 7, (S)-1-(6-Bromo-3-ethylindazol-1-yl)-2-propylamine Fumarate], at human 5-HT2A receptors, the EC50 worked out at 739 nM and the “h5-HT2A Relative Efficacy (%)” value worked out at 39%. For the same compound, at human 5-HT2C [1], the EC50 was determined as 88 nM and the Emax is 69%.

In the case of `CCc1nn(C[C@H](C)N)c2cc(SC)ccc12` [Example 8, (S)-1-(3-Ethyl-6-methylthioindazol-1-yl)-2-propylamine Fumarate], the Ki on human 5-HT2B receptors amounted to 47 nM; at human 5-HT2C [2], 37 nM. For the same compound, the results for the EC50 on human 5-HT2A receptors and at human 5-HT2C [1] were 285 nM and 8 nM, respectively. Moreover, the “h5-HT2A Relative Efficacy (%)” value at human 5-HT2A receptors was 48%. The Emax on human 5-HT2C [1] is 81%.
